Test results as given in patent US8853394B2, “Pharmacokinetically improved compounds” (Surface Logix, Inc., priority 2006, dated 2014).
Values after ≈ are worked out from the molar mass of the structure shown. Where two headings read alike, the source gives them in different places.

Assays:
PDE-1 = PDE-1 inhibition; format: biochemical
PDE-3 = PDE-3 inhibition; format: biochemical
PDE-4 human = PDE-4 human inhibition; format: biochemical
PDE5 = PDE5 (Homo sapiens, UniProt O76074); test: PDE-5 human inhibition; format: biochemical
PDE-6 bovine = target: T1, PDE-6 bovine (Bos taurus, UniProt P11541+P23439); test: PDE-6 bovine inhibition; format: biochemical
T1 sequence (P11541 2-856 limits assumed): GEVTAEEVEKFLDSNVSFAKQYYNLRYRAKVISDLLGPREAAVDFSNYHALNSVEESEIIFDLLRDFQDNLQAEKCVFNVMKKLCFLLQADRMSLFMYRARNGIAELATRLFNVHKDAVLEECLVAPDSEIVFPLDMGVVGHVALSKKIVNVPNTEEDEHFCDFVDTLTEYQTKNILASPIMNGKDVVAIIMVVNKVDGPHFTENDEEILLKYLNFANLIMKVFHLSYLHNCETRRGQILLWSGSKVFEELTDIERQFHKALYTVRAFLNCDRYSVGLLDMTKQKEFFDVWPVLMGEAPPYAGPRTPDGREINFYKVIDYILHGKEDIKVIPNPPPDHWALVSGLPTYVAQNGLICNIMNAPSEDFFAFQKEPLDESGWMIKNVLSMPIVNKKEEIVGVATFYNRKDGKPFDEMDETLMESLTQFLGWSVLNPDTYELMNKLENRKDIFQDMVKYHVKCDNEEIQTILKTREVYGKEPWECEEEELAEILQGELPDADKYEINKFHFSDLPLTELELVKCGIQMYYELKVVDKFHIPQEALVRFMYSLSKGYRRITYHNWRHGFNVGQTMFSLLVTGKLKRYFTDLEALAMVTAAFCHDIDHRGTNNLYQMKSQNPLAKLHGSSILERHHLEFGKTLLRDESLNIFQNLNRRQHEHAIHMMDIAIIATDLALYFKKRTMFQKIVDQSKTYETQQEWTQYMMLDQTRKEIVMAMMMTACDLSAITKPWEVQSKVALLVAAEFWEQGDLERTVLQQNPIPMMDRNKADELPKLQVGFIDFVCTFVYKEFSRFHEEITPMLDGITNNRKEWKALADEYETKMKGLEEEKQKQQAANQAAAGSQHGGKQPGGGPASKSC
T1 sequence (P23439 2-850 limits assumed): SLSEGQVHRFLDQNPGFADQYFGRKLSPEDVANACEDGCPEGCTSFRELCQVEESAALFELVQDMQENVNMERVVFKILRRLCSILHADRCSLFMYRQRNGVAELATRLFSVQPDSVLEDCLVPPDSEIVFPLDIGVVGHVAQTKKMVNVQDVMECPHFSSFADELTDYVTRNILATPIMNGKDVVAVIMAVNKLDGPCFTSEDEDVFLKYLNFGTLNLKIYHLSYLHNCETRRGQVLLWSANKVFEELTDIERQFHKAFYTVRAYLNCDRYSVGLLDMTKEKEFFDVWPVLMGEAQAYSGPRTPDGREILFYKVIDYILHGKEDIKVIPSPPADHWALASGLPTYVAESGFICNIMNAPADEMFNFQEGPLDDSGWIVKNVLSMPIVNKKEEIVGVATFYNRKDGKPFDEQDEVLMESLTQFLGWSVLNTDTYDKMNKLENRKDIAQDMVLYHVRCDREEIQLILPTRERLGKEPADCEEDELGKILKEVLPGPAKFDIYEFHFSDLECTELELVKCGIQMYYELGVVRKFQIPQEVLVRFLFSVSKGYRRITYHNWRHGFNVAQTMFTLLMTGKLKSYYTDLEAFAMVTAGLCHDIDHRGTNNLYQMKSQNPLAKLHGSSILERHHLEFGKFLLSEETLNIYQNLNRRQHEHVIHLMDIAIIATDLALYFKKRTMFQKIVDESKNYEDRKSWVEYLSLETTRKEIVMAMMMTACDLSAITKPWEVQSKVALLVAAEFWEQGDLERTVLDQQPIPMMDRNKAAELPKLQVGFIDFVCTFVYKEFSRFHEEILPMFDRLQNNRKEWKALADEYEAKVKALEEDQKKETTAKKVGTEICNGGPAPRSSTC

[1] = Chronic Cytoxicity (mouse 3T3); format: cell-based; conditions: 3T3 cells
Caco-2 permeability = format: in vitro ADME; conditions: human; for Papp A→B: AtoB; for Papp B→A: BtoA
Description: Several model systems are available, employing monolayers of various cell types, for evaluation of active transport of pharmaceutically active substances. For example, monolayers of Caco-2 intestinal epithelial cells can be used to evaluate active transport of substances between the intestine and the bloodstream. When plated on a surface which allows the flow of material from apical to basolateral and vice versa, such cells form a biological membrane which can be used to simulate physiological absorption and bioavailability. In another example, mouse brain capillary endothelial cell (MBEC) lines have been established to evaluate active transport in and out of the central nervous system. Another example of such cells is HT29 human colon carcinoma cells. Further, monolayers expressing particular transporter proteins can be established using transfected cells. For example, Sasaki et al (2002) J. Biol. Chem. 8:6497 used a double-transfected Madin-Darby canine kidney cell monolayer to study transport of organic anions.

PAMPA permeability = format: in vitro ADME; conditions: Hex, read-out: PAMPA Hex
[2] = T1/2 in human liver microsomes; format: in vitro ADME
[3] = T1/2 in rat liver microsomes; format: in vitro ADME
Non-Spec Binding = format: in vitro ADME
Protein Binding = format: in vitro ADME; conditions: human, human serum components
Description: In general, protein binding is assessed by measuring the capacity of molecules of the invention to bind to one or more human serum components or mimics thereof. In one embodiment, suitable functional residues may be identified by screening of surfaces comprising such residues for their ability to resist adsorption of serum components, including, but not limited to serum proteins, and preferably human serum proteins. Candidate residues can be screened directly by attaching them to a solid support and testing the support for protein resistance. Alternatively, candidate residues are incorporated into, or linked to molecules of pharmaceutical interest. Such compounds may be synthesized on a solid support, or bound to a solid support after synthesis. In a non-limiting example of a direct binding assay, immobilized candidate functional residues or molecules incorporating such residues are tested for their ability to bind serum components. The serum components can be labeled with a signaling moiety for detection, or a labeled secondary reagent that binds to such serum components can be used.
A direct binding analysis can also be preformed in liquid phase. For example, test compounds can be mixed with one or more serum components in liquid phase, and the unbound molecules determined.

Solubility = format: physicochemical
[4] = pH 2.7, aqueous buffer, read-out: Solubility (ug/mL) pH 2.7
[5] = pH 7.4, aqueous buffer, read-out: Solubility (ug/mL) pH 7.4

IC50 (PDE-1) [nM] | IC50 (PDE-3) [nM] | IC50 (PDE-4 human) [nM] | IC50 (PDE5) [nM] | IC50 (PDE-6 bovine) [nM] | Papp A→B (Caco-2 permeability) [×10⁻⁶ cm/s] | Papp B→A (Caco-2 permeability) [×10⁻⁶ cm/s] | Papp (PAMPA permeability) [×10⁻⁶ cm/s] | half-life [2] [min] | half-life [3] [min] | Non-Spec Binding (%) (Non-Spec Binding) | fraction unbound (Protein Binding) | solubility (Solubility; [4]) [µg/mL] | solubility (Solubility; [5]) [µg/mL] | Structure (SMILES) | GI50 [1] [nM] | LC50 (50% lethal concentration) [1] [nM]
17 | 941 | 963 | 0.04 | 0.365 | 2.65 | 45.4 | – | > 60 | 59.9 | 9.72 | 0.11 | – | – | CCCc1nc(C)c2c(=O)[nH]c(-c3cc(S(=O)(=O)N4CCN(CC(=O)N(C)C)CC4)ccc3OCC)nn12 [Compound 16] | – | –
16 | 507 | 1300 | 0.037 | 0.64 | 4.11 | 46.3 | – | 44.1 | 33 | 22.15 | 0.0945 | – | – | CCCc1nc(C)c2c(=O)[nH]c(-c3cc(S(=O)(=O)N4CCN(CC(=O)NC(C)C)CC4)ccc3OCC)nn12 [Compound 18] | – | –
76 | 9600 | 3700 | 1.5 | 12 | – | – | – | 47 | 34 | 68.4 | 0.071 | 112 (≈ 194 µM) | 26 (≈ 45.3 µM) | CCCc1nn(C)c2c(=O)[nH]c(-c3cc(S(=O)(=O)N4CCN(CCN5CCOCC5)CC4)ccc3OCC)nc12 [Compound 21] | – | –

More lines, now with the values behind:

Structure (SMILES) | IC50 (PDE-1) [nM] | IC50 (PDE-3) [nM] | IC50 (PDE-4 human) [nM] | IC50 (PDE5) [nM] | IC50 (PDE-6 bovine) [nM] | Papp A→B (Caco-2 permeability) [×10⁻⁶ cm/s] | Papp B→A (Caco-2 permeability) [×10⁻⁶ cm/s] | Papp (PAMPA permeability) [×10⁻⁶ cm/s] | half-life [2] [min] | half-life [3] [min] | Non-Spec Binding (%) (Non-Spec Binding) | fraction unbound (Protein Binding) | solubility (Solubility; [4]) [µg/mL] | solubility (Solubility; [5]) [µg/mL] | GI50 [1] [nM] | LC50 (50% lethal concentration) [1] [nM]
CCCc1nc(C)c2c(=O)[nH]c(-c3cc(S(=O)(=O)N(CC)CCOC)ccc3OCC)nn12 [Compound 9] | 12.9 | 697 | 1120 | 0.113 | 0.946 | 55.1 | 60.9 | 133 | 9.83 | 9.8 | 35.85 | 0.01 | – | – | 87300 | > 100000
CCCc1nc(C)c2c(=O)[nH]c(-c3cc(S(=O)(=O)N4CCN(C(=O)CN(C)C)CC4)ccc3OCC)nn12 [Compound 1] | 95 | – | – | 0.14 | 4.4 | – | – | ~1.06 | 34 | 45.4 | – | – | 124 (≈ 228 µM) | 111 (≈ 204 µM) | – | –
CCCc1nc(C)c2c(=O)[nH]c(-c3cc(S(=O)(=O)NCCCN4CCCC4=O)ccc3OCC)nn12 [Compound 13] | 3.5 | 777 | 373 | 0.051 | 0.645 | 10.6 | 36.7 | – | 12.7 | 16.6 | 5.95 | 0.0885 | – | – | – | –
CCCc1nc(C)c2c(=O)[nH]c(-c3cc(S(=O)(=O)N4CCN(CCN5CCOCC5)CC4)ccc3OCC)nn12 [Compound 15] | 46.3 | 2230 | 3690 | 0.16 | 1.09 | 8.45 | 40.6 | – | 30.8 | 34 | 8.78 | 0.155 | 115 (≈ 200 µM) | 110 (≈ 192 µM) | – | –
